Experimental data reported in ChEMBL document CHEMBL5584237, “Design, synthesis, biological evaluation, and in silico studies of novel pyridopyridine derivatives as anticancer candidates targeting FMS kinase” (Eur J Med Chem, 2024).

What was measured:
[1] = biological target: Macrophage colony-stimulating factor 1 receptor (Homo sapiens, UniProt P07333); experiment: Inhibition of FMS (unknown origin) using myelin basic protein as substrate measured after 40 mins in presence of [gamma-33P]-ATP by scintillation counting method; details: read-out: IC50
MDA-MB-231 = experiment: Antiproliferative activity against human MDA-MB-231 cells assessed as cell growth inhibition; type: functional
HT-29 = experiment: Antiproliferative activity against human HT-29 cells assessed as cell growth inhibition; type: functional
[2] = Selectivity index, ratio of IC50 for human HS27 cells to IC50 for human A549 cells
[3] = Selectivity index, ratio of IC50 for human HS27 cells to IC50 for human PC-3 cells
[4] = Selectivity index, ratio of IC50 for human WI-38 cells to IC50 for human Malme-3M cells
Hs-578T = experiment: Antiproliferative activity against human Hs-578T cells assessed as cell growth inhibition; type: functional
[5] = Selectivity index, ratio of IC50 for human HS27 cells to IC50 for human MDA-MB-435 cells
[6] = Selectivity index, ratio of IC50 for human WI-38 cells to IC50 for human M14 cells
SN12C = experiment: Antiproliferative activity against human SN12C cells assessed as cell growth inhibition; type: functional
CCRF-CEM = experiment: Antiproliferative activity against human CCRF-CEM cells assessed as cell growth inhibition; type: functional
[7] = Selectivity index, ratio of IC50 for human WI-38 cells to IC50 for human SNB-75 cells
[8] = Selectivity index, ratio of IC50 for human WI-38 cells to IC50 for human SW-620 cells
HCT-15 = experiment: Antiproliferative activity against human HCT-15 cells assessed as cell growth inhibition; type: functional
Malme-3M = experiment: Antiproliferative activity against human Malme-3M cells assessed as cell growth inhibition; type: functional
[9] = Selectivity index, ratio of IC50 for human HS27 cells to IC50 for human HCT-116 cells
OVCAR-3 = experiment: Antiproliferative activity against human OVCAR-3 cells assessed as cell growth inhibition; type: functional
HepG2 = experiment: cells; details: Homo sapiens, HepG2, 48 h
Description: Antiproliferative activity against human HepG2 cells assessed as cell growth inhibition measured after 48 hrs by MTT assay

[10] = Selectivity index, ratio of IC50 for human HS27 cells to IC50 for human MDA-MB-231 cells
[11] = Selectivity index, ratio of IC50 for human WI-38 cells to IC50 for human COLO 205 cells
[12] = Selectivity index, ratio of IC50 for human WI-38 cells to IC50 for human Hs-578T cells
SW-620 = experiment: Antiproliferative activity against human SW-620 cells assessed as cell growth inhibition; type: functional
786-0 = experiment: Antiproliferative activity against human 786-0 cells assessed as cell growth inhibition; type: functional
CAKI-1 = experiment: Antiproliferative activity against human CAKI-1 cells assessed as cell growth inhibition; type: functional
[13] = Selectivity index, ratio of IC50 for human HS27 cells to IC50 for human RXF 393 cells
[14] = Selectivity index, ratio of IC50 for human HS27 cells to IC50 for human Malme-3M cells
[15] = Cytotoxicity against human HS27 cells assessed as reduction in cell growth measured after 48 hrs by MTT assay; type: toxicity, cell-based
[16] = Selectivity index, ratio of IC50 for human HS27 cells to IC50 for human M14 cells
[17] = Selectivity index, ratio of IC50 for human WI-38 cells to IC50 for human SF-539 cells
COLO 205 = experiment: Antiproliferative activity against human COLO 205 cells assessed as cell growth inhibition; type: functional
[18] = Selectivity index, ratio of IC50 for human HS27 cells to IC50 for human 786-0 cells
[19] = Selectivity index, ratio of IC50 for human HS27 cells to IC50 for human MOLT-4 cells
Hep 3B2 = experiment: cells; details: Homo sapiens, Hep3B, 48 h
NCI-H460 = experiment: Antiproliferative activity against human NCI-H460 cells assessed as cell growth inhibition; type: functional
[20] = Selectivity index, ratio of IC50 for human WI-38 cells to IC50 for human MCF7 cells; type: toxicity; details: WI-38 cells and MCF7 cells, read-out: Ratio IC50
[21] = Selectivity index, ratio of IC50 for human HS27 cells to IC50 for human MDA-MB-468 cells
K562 = experiment: Antiproliferative activity against human K562 cells assessed as cell growth inhibition; type: functional
[22] = Selectivity index, ratio of IC50 for human HS27 cells to IC50 for human OVCAR-4 cells
[23] = Selectivity index, ratio of IC50 for human WI-38 cells to IC50 for human NCI-H460 cells; type: toxicity; details: WI-38 cells and NCI-H460 cells, read-out: Ratio IC50
[24] = Selectivity index, ratio of IC50 for human HS27 cells to IC50 for human OVCAR-3 cells
[25] = Cytotoxicity against human WI-38 cells assessed as reduction in cell growth measured after 48 hrs by MTT assay; type: toxicity, cell-based
OVCAR-4 = experiment: Antiproliferative activity against human OVCAR-4 cells assessed as cell growth inhibition; type: functional
[26] = Selectivity index, ratio of IC50 for human WI-38 cells to IC50 for human SR cells; type: toxicity; details: WI-38 cells and SR cells, read-out: Ratio IC50
[27] = Selectivity index, ratio of IC50 for human WI-38 cells to IC50 for human MDA-MB-231 cells; type: toxicity; details: WI-38 cells and MDA-MB-231 cells, read-out: Ratio IC50
M14 = experiment: Antiproliferative activity against human M14 cells assessed as cell growth inhibition; type: functional
[28] = Selectivity index, ratio of IC50 for human WI-38 cells to IC50 for human MDA-MB-435 cells
[29] = Selectivity index, ratio of IC50 for human HS27 cells to IC50 for human SF-539 cells
[30] = Selectivity index, ratio of IC50 for human WI-38 cells to IC50 for human LOX IMVI cells
[31] = Selectivity index, ratio of IC50 for human HS27 cells to IC50 for human SNB-75 cells

Sequence of Macrophage colony-stimulating factor 1 receptor (P07333 whole entry): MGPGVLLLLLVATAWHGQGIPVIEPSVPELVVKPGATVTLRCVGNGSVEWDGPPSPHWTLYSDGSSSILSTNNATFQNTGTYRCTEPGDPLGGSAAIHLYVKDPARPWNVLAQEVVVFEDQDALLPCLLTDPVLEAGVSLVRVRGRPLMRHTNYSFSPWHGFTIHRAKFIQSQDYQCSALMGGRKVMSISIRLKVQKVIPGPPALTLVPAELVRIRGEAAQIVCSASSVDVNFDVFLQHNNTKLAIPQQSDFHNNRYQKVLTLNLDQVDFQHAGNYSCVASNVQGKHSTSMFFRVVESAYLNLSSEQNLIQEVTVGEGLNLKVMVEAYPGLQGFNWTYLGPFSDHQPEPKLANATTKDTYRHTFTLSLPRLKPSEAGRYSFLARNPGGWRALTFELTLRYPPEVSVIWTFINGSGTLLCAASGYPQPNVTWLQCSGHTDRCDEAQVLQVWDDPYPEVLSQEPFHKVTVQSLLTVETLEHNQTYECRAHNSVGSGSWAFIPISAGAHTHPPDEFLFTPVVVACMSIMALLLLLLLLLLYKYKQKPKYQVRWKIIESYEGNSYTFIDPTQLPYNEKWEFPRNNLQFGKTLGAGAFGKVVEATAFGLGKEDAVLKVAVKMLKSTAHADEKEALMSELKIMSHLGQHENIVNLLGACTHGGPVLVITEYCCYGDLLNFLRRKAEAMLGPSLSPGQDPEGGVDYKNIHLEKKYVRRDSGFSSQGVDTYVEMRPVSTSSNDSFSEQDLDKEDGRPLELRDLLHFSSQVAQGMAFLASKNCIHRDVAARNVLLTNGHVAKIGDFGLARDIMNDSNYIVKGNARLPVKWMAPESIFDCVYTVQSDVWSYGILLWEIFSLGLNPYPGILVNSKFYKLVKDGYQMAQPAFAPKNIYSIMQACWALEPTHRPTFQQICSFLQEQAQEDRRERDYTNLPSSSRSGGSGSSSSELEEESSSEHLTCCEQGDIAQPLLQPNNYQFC

- IC50 [1]: 993 nM
- GI50 (MDA-MB-231): 610 nM
- GI50 (HT-29): 670 nM
- GI50 (HCT-15): 670 nM
- GI50 (OVCAR-3): 640 nM
- IC50 (HepG2): 460 nM
- GI50 (SW-620): 640 nM
- GI50 (786-0): 500 nM
- GI50 (COLO 205): 930 nM
- IC50 (Hep 3B2): 1690 nM
- GI50 (NCI-H460): 620 nM
- GI50 (K562): 1000 nM
- GI50 (OVCAR-4): 880 nM
SMILES: CCN1CCN(c2ccc(NC(=O)Nc3ccc(-c4cc(C(=O)NC(C)C)c5ncccc5n4)cc3)cc2C(F)(F)F)CC1
- TGI (MDA-MB-231): 1180 nM
- TGI (HT-29): 1320 nM
- Ratio IC50 [2]: 3.32
- Ratio IC50 [3]: 11.2
- Ratio IC50 [4]: 8.62
- GI50 (Hs-578T): 880 nM
- TGI (Hs-578T): 3.45 µM
- Ratio IC50 [5]: 4.47
- Ratio IC50 [6]: 8.62
- GI50 (SN12C): 670 nM
- TGI (SN12C): 1380 nM
- TGI (CCRF-CEM): 3.1 µM
- Ratio IC50 [7]: 8.71
- Ratio IC50 [8]: 18.84
- TGI (HCT-15): 1350 nM
- GI50 (Malme-3M): 580 nM
- TGI (Malme-3M): 1050 nM
- Ratio IC50 [9]: 9.77
- TGI (OVCAR-3): 1360 nM
- Ratio IC50 [10]: 5.22
- Ratio IC50 [11]: 18.84
- Ratio IC50 [12]: 10.06
- TGI (SW-620): 1260 nM
- TGI (786-0): 1030 nM
- GI50 (CAKI-1): 800 nM
- TGI (CAKI-1): 2080 nM
- Ratio IC50 [13]: 5.45
- Ratio IC50 [14]: 4.47
- IC50 at 48 h [15]: 8.4 µM
- Ratio IC50 [16]: 4.47
- Ratio IC50 [17]: 8.71
- TGI (COLO 205): 2710 nM
- Ratio IC50 [18]: 5.45
- Ratio IC50 [19]: 8
- TGI (NCI-H460): 1180 nM
- selectivity ratio [20]: 10.1
- Ratio IC50 [21]: 5.22
- TGI (K562): 34.5 µM
- Ratio IC50 [22]: 3.05
- selectivity ratio [23]: 6.4
- Ratio IC50 [24]: 3.05
- IC50 at 48 h [25]: 16.2 µM
- TGI (OVCAR-4): 2450 nM
- selectivity ratio [26]: 15.4
- selectivity ratio [27]: 10.1
- GI50 (M14): 720 nM
- TGI (M14): 1900 nM
- Ratio IC50 [28]: 8.62
- Ratio IC50 [29]: 4.52
- Ratio IC50 [30]: 8.62
- Ratio IC50 [31]: 4.52
